These results are taken from patent US8974823B2, “Solid compositions of low-solubility drugs and poloxamers” (Bend Research, Inc., priority 2003, dated 2015).

In brackets after ≈: the same amount, converted by molar mass.

Series [1] can be described thus: glass transition temperature (Tg) of the drug. Conditions: for Tg: Table B, unless noted Tg measured at less than 10% RH. It is filed as physicochemical. The method, then: In a first aspect, the invention comprises a solid composition comprising a plurality of particles. The particles comprise a low-solubility drug and a poloxamer. The drug is in intimate contact with the poloxamer in the particles. Collectively, the drug and poloxamer constitute at least 50 wt % of the particles. At least a substantial portion of the drug in the composition is amorphous. The Tg of the drug is at least 50° C. Unless otherwise noted, as used herein the Tg refers to the Tg measured at less than 10% RH.
Such Tg values may represent that of drug dispersed in the amorphous portions of the poloxamer or the Tg of drug-rich phases or domains. […] The Tg of the drug may be at least about 60° C., at least about 70° C., or even at least about 80° C. The Tg of a drug can be determined using standard analytical techniques well known in the art, including by a dynamic mechanical analyzer (DMA), a dilatometer, a dielectric analyzer, and by differential scanning calorimetry (DSC).

Series [2] in a line: Log P of the drug. Conditions: for logP: octanol/water, Log P.
Description: A common measure of hydrophobicity is Log P, defined as the base 10 logarithm of the ratio of the drug solubility in octanol to the drug solubility in water. Log P may be measured experimentally or calculated using methods known in the art.
Series [3] can be described thus: in vivo test of oral powder for constitution in fasted male beagle dogs (plasma Drug 4). Conditions: dog, oral gavage OPC. The method, then:
The composition of Example 16 was used as oral powders for constitution (OPC) for evaluating the performance of the compositions in in vivo tests using male beagle dogs. The OPC was dosed as a suspension in a solution containing 0.5 wt % […] METHOCEL® (from Dow Chemical Co.), and was prepared as follows. First, 7.5 g of METHOCEL® was weighed out and added slowly to approximately 490 mL of water at 90-100° C. to form a METHOCEL® suspension. After all the METHOCELS® was added, 1000 mL of cool/room temperature water was added to the suspension, which was then placed in an ice water bath. When all of the METHOCEL® had dissolved, 2.55 g of polyoxyethylene 20 sorbitan monooleate (TWEEN 80) were added and the mixture stirred until the TWEEN 80 had dissolved, thus forming a stock suspension solution.
To form the OPC, sufficient quantity of the test composition to result in a 90 mgA amount of Drug 4 was weighed and placed into a mortar. (“mgA” refers to mg of active drug.) A 20 mL quantity of the stock suspension solution was added to the mortar and the test composition was mixed with a pestle. […]
Six male beagle dogs were each dosed with the OPC. […] Whole blood samples were taken from the jugular vein and analyzed for the concentration of Drug 4 using the following procedure. […]

The nature of series [4]: aqueous solubility of the drug. Conditions: aqueous solution.
The nature of series [5]: in vitro dissolution test of Drug 5 particles in MFD solution. The format is physicochemical. Conditions: dose 120 μg/mL; for AUC / Drug 5 Concentration: MFD solution; for Drug 5 Concentration: 37° C. The method, then: The solid compositions of Examples 1-2 were evaluated in an in vitro dissolution test to ascertain concentration enhancement of Drug 1. A […] sample of each solid composition was added in duplicate to a microcentrifuge tube, so that the total concentration of Drug 1 would have been 2000 μg/mL if all of the drug had dissolved. The tubes were placed in a 37° C. temperature-controlled chamber, and 1.8 mL PBS containing 0.5 wt % sodium taurocholic acid and 1-palmitoyl-2-oleyl-sn-glycero-3-phosphocholine (NaTC/POPC, with a 4/1 weight ratio) at pH 6.5 and 290 mOsm/kg (simulating a Model Fasted Duodenal solution) was added to each respective tube. The samples were quickly mixed using a vortex mixer for about 60 seconds. The samples were centrifuged at 13,000 G at 37° C. for 1 minute. The resulting supernatant solution was then sampled and diluted 1:6 (by volume) with methanol and then analyzed by high-performance liquid chromatography (HPLC). The contents of each respective tube were mixed on a vortex mixer and allowed to stand undisturbed at 37° C. until the next sample was taken. Samples were collected at 4, 10, 20, 40, 90, and 1200 minutes.
The so-formed particles were tested in vitro to ascertain concentration enhancement of Drug 5 as in Examples 1-2 at a dose of 120 μg/mL. Control C9 consisted of amorphous Drug 5 alone.
The concentration of drug obtained in these samples were used to determine the Cmax90 during the initial 90 minutes.

Assay in series [6]: as above
It is filed as physicochemical. Conditions: dose 120 μg/mL; for Drug 5 Concentration: 37° C.

For series [7] the following is noted: drugs of prior-art compositions, background section; cited from earlier work.
Setting [8] is: Drug 5, MFDS, initial 90 minutes.

The term logP denotes a log measure of how a compound divides between an organic and an aqueous phase. By Cmax is commonly meant the maximum level reached in the sampled fluid or tissue. As usually defined, the Log P is a log measure of how a compound divides between an organic and an aqueous phase. High values mean higher lipophilicity, low ones lower lipophilicity. Broadly, the solubility is the concentration that dissolves in the medium under given conditions. As a reminder, the AUC is the area under the concentration-time curve, a measure of exposure. A lower AUC goes with less exposure.

`CCCc1nn(C)c2c(=O)[nH]c(-c3cc(S(=O)(=O)N4CCN(C)CC4)ccc3OCC)nc12` [1-[4-ethoxy-3-(6,7-dihydro-1-methyl-7-oxo-3-propyl-1H-pyrazolo[4,3-d]pyrimidin-5-yl)phenylsulphonyl]-4-methylpiperazine] gave a Tg in series [1] of 135 °C. In series [2], this molecule gave a logP of 7.
The molecule `CCOC(=O)N1c2ccc(C(F)(F)F)cc2[C@@H](N(Cc2cc(C(F)(F)F)cc(C(F)(F)F)c2)C(=O)OC)C[C@H]1CC` [Control C7, Torcetrapib] came in with a Cmax in series [3] (90 mgA Drug 4) below 100 ng/mL. The AUC(0-t) in series [3] (90 mgA Drug 4, read-out: AUC(0–24)) is below 200 ng·h/mL.
Molecule `Cc1ncccc1CNC(=O)c1ccc2c(c1)CC[C@@H]1C[C@@](O)(CCC(F)(F)F)CC[C@@]21Cc1ccccc1` [Drug 2, 2-phenanthrenecarboxamide,4b,5,6,7,8,8a,9,10-octahydro-7-hydroxy-N-[(2-methyl-3-pyridinyl)methyl]-4b-(phenylmethyl)-7-(3,3,3-trifluoropropyl)-, (4bS,7S,8aR)-] showed a Tg in series [1] of 99 °C. In addition, the “Tg,drug” value in series [1] (at 0% RH) came to 99 °C. Also, the “Log P” value in series [2] is on record as “about 6.2”.
In the case of `Cc1c(O)cccc1C(=O)N[C@@H](CSc1ccccc1)[C@H](O)CN1C[C@H]2CCCC[C@H]2C[C@H]1C(=O)NC(C)(C)C` [Drug 3, N-(1,1-dimethylethyl) decahydro-2-[(2R,3R)-2-hydroxy-3-[(3-hydroxy-2-methylbenzoyl)amino]-4-(phenylthio)butyl]-3-isoquinolinecarboxamide (3s, 4aS, 8aS)-monomethanesulfonate], the solubility in series [4] was around 6 µg/mL (≈ 10.6 µM).
With `CCOC(=O)N1c2ccc(C(F)(F)F)cc2[C@@H](N(Cc2cc(C(F)(F)F)cc(C(F)(F)F)c2)C(=O)OC)C[C@H]1CC` [Drug 4, [2R,4S] 4-[(3,5-bis-trifluoromethyl-benzyl)-methoxycarbonyl-amino]-2-ethyl-6-trifluoromethyl-3,4-dihydro-2H-quinoline-1-carboxylic acid ethyl ester], in series [1] (at ambient RH), the “Tg,drug” value was “about 28 °C”. For the same molecule, in series [2], the “Log P” value was 7.3 and the logP was around 7.5.
For the molecule `CCc1cc(Oc2cccc(N(Cc3cccc(OC(F)(F)C(F)F)c3)C[C@@H](O)C(F)(F)F)c2)ccc1Cl` [Drug 5, (2R)-3-[[3-(4-chloro-3-ethylphenoxy)phenyl][[3-(1,1 ,2,2-tetrafluoroethoxy)phenyl]methyl]amino]-1,1,1-trifluoro-2-propanol], the “Tg,drug” value in series [1] (RH not stated) was “about −15 °C”. Besides, in series [2], the “Log P” value turned out to be 10.1 and the logP is around 10.
As for `CCc1cc(Oc2cccc(N(Cc3cccc(OC(F)(F)C(F)F)c3)C[C@@H](O)C(F)(F)F)c2)ccc1Cl` [Example C9, (2R)-3-[[3-(4-chloro-3-ethylphenoxy)phenyl][[3-(1,1 ,2,2-tetrafluoroethoxy)phenyl]methyl]amino]-1,1,1-trifluoro-2-propanol], the AUC90 in series [5] (setting [8]) is 1,400 min * μg/mL. Further, in series [5] (setting [8]), the Cmax90 is 29 µg/mL. For the same molecule, the AUC in series [5] (Drug 5, time 40 min) is 330 µg·min/mL; in series [5] (Drug 5, time 90 min), 1,400 min * μg/mL; in series [5] (Drug 5, time 1200 min), 60,700 min * μg/mL; in series [6] (Drug 5, time 0 min), 0 µg·min/mL; in series [6] (Drug 5, time 3.5 min), 5 µg·min/mL; in series [6] (Drug 5, time 7.25 min), 17 µg·min/mL. Further, the AUC in series [6] (Drug 5, time 11 min) came out at 34 µg·min/mL; in series [6] (Drug 5, time 20 min), 96 µg·min/mL. The “Drug 5 Concentration” value is 0 µg/mL in series [5] (time 0 min); 15 µg/mL in series [5] (time 40 min); 29 µg/mL in series [5] (time 90 min); 78 µg/mL in series [5] (time 1200 min); 2.8 µg/mL in series [6] (time 3.5 min); 3.8 µg/mL in series [6] (time 7.25 min). The “Drug 5 Concentration” value in series [6] (time 11 min) was determined as 5.3 µg/mL; in series [6] (time 20 min) it was 8.4 µg/mL.
Regarding `CC[C@@H]1C[C@H](N(Cc2cc(C(F)(F)F)cc(C(F)(F)F)c2)C(C)=O)c2cc(C(F)(F)F)ccc2N1C(=O)OC(C)C` [[2R,4S] 4-[acetyl-(3,5-bis-trifluoromethyl-benzyl)-amino]-2-ethyl-6-trifluoromethyl-3,4-dihydro-2H-quinoline-1-carboxylic acid isopropyl ester], the logP in series [2] was determined as 6.9.
In the case of `CCC(CC)Nc1cc(C)nc(Oc2c(C)cc(C)cc2C)c1C` [[3,6-dimethyl-2-(2,4,6-trimethyl-phenoxy)-pyridin-4-yl]-(1-ethyl-propyl)-amine], in series [2], the logP is 7.
Turning to `COc1ccccc1OCCNCC(O)COc1cccc2[nH]c3ccccc3c12` (centres unmarked) [carvedilol], in series [7], the “glass transition temperature (Tg)” value is “about 39 °C”.
